These molecules were tested against human MER (528-end) (Homo sapiens (Human), UniProt Q12866) (assay: HTRF Kinase Activity Biochemical Assay (KinEASE-TK)). Settings: 10 uM ATP.
Summary of the method: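 Recombinant human MER (528-end) phosphorylated biotin-TK peptide substrate, 1 h at room temperature. Reaction stopped with detection buffer containing 0.375 nM Eu3+-cryptate anti-TK antibody and 0.062 uM streptavidin-XL665, 1 h further. Activity taken as HTRF ratio 665/620 nm ×10,000, 340 nm excitation.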

human MER (528-end), sequence (Q12866 528-999 limits assumed): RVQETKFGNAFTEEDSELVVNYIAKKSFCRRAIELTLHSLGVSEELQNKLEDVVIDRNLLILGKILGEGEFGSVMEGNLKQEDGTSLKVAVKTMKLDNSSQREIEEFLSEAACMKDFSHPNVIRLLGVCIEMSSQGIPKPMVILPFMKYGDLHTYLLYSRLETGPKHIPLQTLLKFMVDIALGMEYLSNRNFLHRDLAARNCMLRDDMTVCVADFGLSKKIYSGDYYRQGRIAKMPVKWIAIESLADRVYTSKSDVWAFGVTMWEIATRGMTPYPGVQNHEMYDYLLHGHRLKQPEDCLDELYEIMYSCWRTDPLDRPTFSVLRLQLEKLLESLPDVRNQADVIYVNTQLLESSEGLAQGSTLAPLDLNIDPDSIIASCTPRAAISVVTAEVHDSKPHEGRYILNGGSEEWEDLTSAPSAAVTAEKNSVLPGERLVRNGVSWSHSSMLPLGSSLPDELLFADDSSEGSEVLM

Row | SMILES | IC50 [nM]
1 | Cn1cc(-c2cnc(N)c(C(=O)N[C@@H]3CCN(C(=O)Oc4ccc(Cl)cc4N)C3)c2)cn1 [Example 99, 2-amino-4-chlorophenyl (R)-3-(2-amino-5-(1-methyl-1H-pyrazol-4-yl)nicotinamido)pyrrolidine-1-carboxylate] | > 1000
2 | Cn1cc(-c2cnc(N)c(C(=O)N[C@@H]3CCN(C(=O)Oc4cc([N+](=O)[O-])ccc4N)C3)c2)cn1 [Example 100, 2-amino-5-nitrophenyl (R)-3-(2-amino-5-(1-methyl-1H-pyrazol-4-yl)nicotinamido)pyrrolidine-1-carboxylate] | > 1000
3 | Cn1cc(-c2cnc(N)c(C(=O)N[C@@H]3CCN(C(=O)Oc4cccc(O)c4)C3)c2)cn1 [Example 101, 3-hydroxyphenyl (R)-3-(2-amino-5-(1-methyl-1H-pyrazol-4-yl)nicotinamido)pyrrolidine-1-carboxylate] | > 1000
4 | Cn1cc(-c2cnc(N)c(C(=O)N[C@@H]3CCN(C(=O)Oc4ccc(Oc5ccccc5)cc4)C3)c2)cn1 [Example 102, 4-phenoxyphenyl (R)-3-(2-amino-5-(1-methyl-1H-pyrazol-4-yl)nicotinamido)pyrrolidine-1-carboxylate] | 100 to 1000
5 | Cn1cc(-c2cnc(N)c(C(=O)N[C@@H]3CCN(C(=O)Oc4ccc5ccccc5c4)C3)c2)cn1 [Example 103, naphthalen-2-yl (R)-3-(2-amino-5-(1-methyl-1H-pyrazol-4-yl)nicotinamido)pyrrolidine-1-carboxylate] | 100 to 1000
6 | Cn1cc(-c2cnc(N)c(C(=O)N[C@@H]3CCN(C(=O)Oc4ccc5cc(O)ccc5c4)C3)c2)cn1 [Example 104, 6-hydroxynaphthalen-2-yl (R)-3-(2-amino-5-(1-methyl-1H-pyrazol-4-yl)nicotinamido)pyrrolidine-1-carboxylate] | 100 to 1000
7 | Cn1cc(-c2cnc(N)c(C(=O)N[C@@H]3CCN(C(=O)O[C@H]4C[C@H]5CC[C@@H]4C5)C3)c2)cn1 [Example 105, (1R,2S,4S)-bicyclo[2.2.1]heptan-2-yl (R)-3-(2-amino-5-(1-methyl-1H-pyrazol-4-yl)nicotinamido)pyrrolidine-1-carboxylate] | > 1000
8 | Cn1cc(-c2cnc(N)c(C(=O)N[C@@H]3CCN(C(=O)OC4CCCC4)C3)c2)cn1 [Example 106, cyclopentyl (R)-3-(2-amino-5-(1-methyl-1H-pyrazol-4-yl)nicotinamido)pyrrolidine-1-carboxylate] | > 1000
9 | Cn1cc(-c2cnc(N)c(C(=O)N[C@@H]3CCN(C(=O)OC4CCCCCC4)C3)c2)cn1 [Example 107, cycloheptyl (R)-3-(2-amino-5-(1-methyl-1H-pyrazol-4-yl)nicotinamido)pyrrolidine-1-carboxylate] | > 1000
10 | Cn1cc(-c2cnc(N)c(C(=O)N[C@@H]3CCN(C(=O)O[C@H]4C[C@@H]5CC[C@H]4C5)C3)c2)cn1 [Example 109, (1S,2S,4R)-bicyclo[2.2.1]heptan-2-yl (R)-3-(2-amino-5-(1-methyl-1H-pyrazol-4-yl)nicotinamido)pyrrolidine-1-carboxylate] | > 1000
11 | Cn1cc(-c2cnc(N)c(C(=O)N[C@@H]3CCN(C(=O)Oc4cccc(Oc5ccccc5)c4)C3)c2)cn1 [Example 110, 3-phenoxyphenyl (R)-3-(2-amino-5-(1-methyl-1H-pyrazol-4-yl)nicotinamido)pyrrolidine-1-carboxylate] | 100 to 1000
12 | Cn1cc(-c2cnc(N)c(C(=O)N[C@@H]3CCN(C(=O)Oc4ccc(Oc5ccc([N+](=O)[O-])cc5)cc4)C3)c2)cn1 [Example 111, 4-(4-nitrophenoxy)phenyl (R)-3-(2-amino-5-(1-methyl-1H-pyrazol-4-yl)nicotinamido)pyrrolidine-1-carboxylate] | > 1000
13 | Cn1cc(-c2cnc(N)c(C(=O)N[C@@H]3CCN(C(=O)Oc4ccc(Oc5ccc(N)cc5)cc4)C3)c2)cn1 [Example 112, 4-(4-aminophenoxy)phenyl (R)-3-(2-amino-5-(1-methyl-1H-pyrazol-4-yl)nicotinamido)pyrrolidine-1-carboxylate] | 100 to 1000
14 | Cn1cc(-c2cnc(N)c(C(=O)N[C@@H]3CCN(C(=O)Oc4ccc(Oc5ccc(CO)cc5)cc4)C3)c2)cn1 [Example 114, 4-(4-(hydroxymethyl)phenoxy)phenyl (R)-3-(2-amino-5-(1-methyl-1H-pyrazol-4-yl)nicotinamido)pyrrolidine-1-carboxylate] | 100 to 1000
15 | CN(C)Cc1ccc(Oc2ccc(OC(=O)N3CC[C@@H](NC(=O)c4cc(-c5cnn(C)c5)cnc4N)C3)cc2)cc1 [Example 115, 4-(4-((dimethylamino)methyl)phenoxy)phenyl (R)-3-(2-amino-5-(1-methyl-1H-pyrazol-4-yl)nicotinamido)pyrrolidine-1-carboxylate] | 100 to 1000
16 | Cn1cc(-c2cnc(N)c(C(=O)N[C@@H]3CCN(C(=O)Oc4cc(Cl)cc(Cl)c4)C3)c2)cn1 [Example 116, 3,5-dichlorophenyl (R)-3-(2-amino-5-(1-methyl-1H-pyrazol-4-yl)nicotinamido)pyrrolidine-1-carboxylate] | 100 to 1000
17 | CN1CCC(n2cc(-c3cnc(N)c(C(=O)N[C@@H]4CCN(C(=O)Oc5ccccc5)C4)c3)cn2)CC1 [Example 119, phenyl (R)-3-(2-amino-5-(1-(1-methylpiperidin-4-yl)-1H-pyrazol-4-yl)nicotinamido)pyrrolidine-1-carboxylate] | > 1000

Row | SMILES | IC50 [nM]
18 | Cn1cc(-c2cnc(N)c(C(=O)N[C@@H]3CCN(C(=O)OC4CCC(c5ccccc5)CC4)C3)c2)cn1 (stereo partly drawn) [Example 125, 4-phenylcyclohexyl (R)-3-(2-amino-5-(1-methyl-1H-pyrazol-4-yl)nicotinamido)pyrrolidine-1-carboxylate] | > 1000
19 | CN(C(=O)c1cc(-c2cnn(C)c2)cnc1N)[C@@H]1CCN(C(=O)Oc2cccc(-c3ccccc3)c2)C1 [Example 130, [1,1′-biphenyl]-3-yl (R)-3-(2-amino-N-methyl-5-(1-methyl-1H-pyrazol-4-yl)nicotinamido)pyrrolidine-1-carboxylate] | > 1000
20 | Cn1cc(-c2cnc(N)c(C(=O)N[C@@H]3CCN(c4nc5ccccc5[nH]4)C3)c2)cn1 [Example 133, (R)—N-(1-(1H-benzo[d]imidazol-2-yl)pyrrolidin-3-yl)-2-amino-5-(1-methyl-1H-pyrazol-4-yl)nicotinamide] | > 1000
21 | Cn1cc(-c2cnc(N)c(C(=O)N[C@@H]3CCN(c4ccccn4)C3)c2)cn1 [Example 135, (R)-2-amino-5-(1-methyl-1H-pyrazol-4-yl)-N-(1-(pyridin-2-yl)pyrrolidin-3-yl)nicotinamide] | > 1000
22 | CCc1cnc(N2CC[C@@H](NC(=O)c3cc(-c4cnn(C)c4)cnc3N)C2)nc1 [Example 136, (R)-2-amino-N-(1-(5-ethylpyrimidin-2-yl)pyrrolidin-3-yl)-5-(1-methyl-1H-pyrazol-4-yl)nicotinamide] | > 1000
23 | Cn1cc(-c2cnc(N)c(C(=O)N[C@@H]3CCN(c4ncc5ccccc5n4)C3)c2)cn1 [Example 137, (R)-2-amino-5-(1-methyl-1H-pyrazol-4-yl)-N-(1-(quinazolin-2-yl)pyrrolidin-3-yl)nicotinamide] | > 1000
24 | CCOC(=O)c1csc(N2CC[C@@H](NC(=O)c3cc(-c4cnn(C)c4)cnc3N)C2)n1 [Example 139, ethyl (R)-2-(3-(2-amino-5-(1-methyl-1H-pyrazol-4-yl)nicotinamido)pyrrolidin-1-yl)thiazole-4-carboxylate] | > 1000
25 | Nc1ncc(-c2cnn(C3CCNCC3)c2)cc1C(=O)N[C@@H]1CCN(C(=O)Nc2cc(Cl)cc(Cl)c2)C1 [Example 146, (R)-2-amino-N-(1-((3,5-dichlorophenyl)carbamoyl)pyrrolidin-3-yl)-5-(1-(piperidin-4-yl)-1H-pyrazol-4-yl)nicotinamide] | 10 to 100
26 | Nc1ncc(-c2cnn(C3CCNCC3)c2)cc1C(=O)N[C@@H]1CCN(C(=O)Oc2cccc(-c3ccccc3)c2)C1 [Example 147, [1,1′-biphenyl]-3-yl (R)-3-(2-amino-5-(1-(piperidin-4-yl)-1H-pyrazol-4-yl)nicotinamido)pyrrolidine-1-carboxylate] | 10 to 100
27 | CC(c1ccc(Cl)c(Cl)c1)N1CC[C@@H](NC(=O)c2cc(-c3cnn(C4CCNCC4)c3)cnc2N)C1 (stereo partly drawn) [Example 150, 2-amino-N-((3R)-1-(1-(3,4-dichlorophenyl)ethyl)pyrrolidin-3-yl)-5-(1-(piperidin-4-yl)-1H-pyrazol-4-yl)nicotinamide] | > 1000
28 | Nc1ncc(-c2cnn(C3CCNCC3)c2)cc1C(=O)NC1CCN(Cc2ccccc2)C1 (stereo not drawn) [Example 152, 2-amino-N-(1-benzylpyrrolidin-3-yl)-5-(1-(piperidin-4-yl)-1H-pyrazol-4-yl)nicotinamide] | 100 to 1000
29 | Nc1ncc(-c2cnn(C3CCNCC3)c2)cc1C(=O)N[C@@H]1CCN(Cc2ccc(F)cc2)C1 [Example 153, (R)-2-amino-N-(1-(4-fluorobenzyl)pyrrolidin-3-yl)-5-(1-(piperidin-4-yl)-1H-pyrazol-4-yl)nicotinamide] | 100 to 1000
30 | COc1cccc(CN2CC[C@@H](NC(=O)c3cc(-c4cnn(C5CCNCC5)c4)cnc3N)C2)c1 [Example 154, (R)-2-amino-N-(1-(3-methoxybenzyl)pyrrolidin-3-yl)-5-(1-(piperidin-4-yl)-1H-pyrazol-4-yl)nicotinamide] | 100 to 1000
31 | Nc1ncc(-c2cnn(C3CCNCC3)c2)cc1C(=O)N[C@@H]1CCN(Cc2ccc([N+](=O)[O-])cc2)C1 [Example 156, (R)-2-amino-N-(1-(4-nitrobenzyl)pyrrolidin-3-yl)-5-(1-(piperidin-4-yl)-1H-pyrazol-4-yl)nicotinamide] | > 1000
32 | Nc1ncc(-c2cnn(C3CCNCC3)c2)cc1C(=O)N[C@@H]1CCN(Cc2cc(F)c(F)cc2F)C1 [Example 157, (R)-2-amino-5-(1-(piperidin-4-yl)-1H-pyrazol-4-yl)-N-(1-(2,4,5-trifluorobenzyl)pyrrolidin-3-yl)nicotinamide] | > 1000
33 | Nc1ncc(-c2cnn(C3CCNCC3)c2)cc1C(=O)N[C@@H]1CCN(Cc2ccc(F)c(Cl)c2)C1 [Example 158, (R)-2-amino-N-(1-(3-chloro-4-fluorobenzyl)pyrrolidin-3-yl)-5-(1-(piperidin-4-yl)-1H-pyrazol-4-yl)nicotinamide] | 100 to 1000

Source: patent US12378224B2 (Dong-A Socio Holdings Co., Ltd., priority 2016, dated 2025)
